What all share (assay type): cell-based
One experiment addresses T1, human TLR7 (Homo sapiens, UniProt Q9NYK1).
T1 construct: host or cells: HEK-Blue cells
T1 sequence (Q9NYK1 27-1049): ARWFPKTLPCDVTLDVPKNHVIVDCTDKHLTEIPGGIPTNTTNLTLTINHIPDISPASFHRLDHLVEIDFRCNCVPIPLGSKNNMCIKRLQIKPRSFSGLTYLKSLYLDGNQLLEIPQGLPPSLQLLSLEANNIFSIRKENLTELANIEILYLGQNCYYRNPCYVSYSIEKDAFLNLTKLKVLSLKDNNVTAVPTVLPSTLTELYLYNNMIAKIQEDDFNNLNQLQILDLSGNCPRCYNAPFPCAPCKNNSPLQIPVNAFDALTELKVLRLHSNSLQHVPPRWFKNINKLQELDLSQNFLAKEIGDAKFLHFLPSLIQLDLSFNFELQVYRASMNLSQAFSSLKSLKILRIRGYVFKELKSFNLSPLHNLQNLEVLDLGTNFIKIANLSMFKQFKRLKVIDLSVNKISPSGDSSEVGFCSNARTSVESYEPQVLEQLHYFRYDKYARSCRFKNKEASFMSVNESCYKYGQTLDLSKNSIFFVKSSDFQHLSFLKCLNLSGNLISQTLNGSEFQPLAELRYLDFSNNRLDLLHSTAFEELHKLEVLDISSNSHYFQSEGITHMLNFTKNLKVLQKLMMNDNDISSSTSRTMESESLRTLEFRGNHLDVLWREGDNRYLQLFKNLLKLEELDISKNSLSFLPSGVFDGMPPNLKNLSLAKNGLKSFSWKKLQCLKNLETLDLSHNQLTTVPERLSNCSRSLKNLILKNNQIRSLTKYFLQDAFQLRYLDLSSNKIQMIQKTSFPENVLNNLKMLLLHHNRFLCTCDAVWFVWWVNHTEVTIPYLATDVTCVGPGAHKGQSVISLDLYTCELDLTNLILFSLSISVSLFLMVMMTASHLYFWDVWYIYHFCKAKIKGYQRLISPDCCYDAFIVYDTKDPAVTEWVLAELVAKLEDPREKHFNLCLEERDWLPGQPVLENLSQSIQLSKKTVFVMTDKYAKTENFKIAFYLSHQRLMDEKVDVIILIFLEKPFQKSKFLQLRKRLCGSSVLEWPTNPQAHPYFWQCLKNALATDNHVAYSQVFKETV
The experiment is described as follows: TLR7 inhibition reporter assay (HEK-Blue SEAP). As to conditions: HEK-Blue cells overexpressing human TLR7, stimulated with gardiquimod 7.5 μM, 22 hour incubation. The protocol: (§1) TLR7/8/9 Inhibition Reporter Assays
(§2) HEK-Blue™-cells (Invivogen) overexpressing human TLR7, TLR8 or TLR9 receptors were used for screening inhibitors of these receptors using an inducible SEAP (secreted embryonic alkaline phosphatase) reporter gene under the control of the IFN-β minimal promoter fused to five NF-κB and AP-1-binding sites. Briefly, cells are seeded into Greiner 384 well plates (15000 cells per well for TLR7, 20,000 for TLR8 and 25,000 for TLR9) and then treated with test compounds in DMSO to yield a final dose response concentration range of 0.05 nM to 50 μM. After a 30 minute compound pre-treatment at room temperature, the cells are then stimulated with a TLR7 ligand (gardiquimod at a final concentration of 7.5 μM), TLR8 ligand (R848 at a final concentration of 15.9 μM) or TLR9 ligand (ODN2006 at a final concentration of 5 nM) to activate NF-κB and AP-1 which induce the production of SEAP. After a 22 hour incubation at 37° C., 5% CO2, SEAP levels are determined with the addition of HEK-Blue™ Detection reagent (Invivogen), a cell culture medium that allows for detection of SEAP, according to manufacturer's specifications. The percent inhibition is determined as the % reduction in the HEK-Blue signal present in wells treated with agonist plus DMSO alone compared to wells treated with a known inhibitor.

A further experiment has as its target T2, human TLR8 (Homo sapiens, UniProt Q9NR97).
T2 construct: host or cells: HEK-Blue cells
T2 sequence (Q9NR97 27-1041): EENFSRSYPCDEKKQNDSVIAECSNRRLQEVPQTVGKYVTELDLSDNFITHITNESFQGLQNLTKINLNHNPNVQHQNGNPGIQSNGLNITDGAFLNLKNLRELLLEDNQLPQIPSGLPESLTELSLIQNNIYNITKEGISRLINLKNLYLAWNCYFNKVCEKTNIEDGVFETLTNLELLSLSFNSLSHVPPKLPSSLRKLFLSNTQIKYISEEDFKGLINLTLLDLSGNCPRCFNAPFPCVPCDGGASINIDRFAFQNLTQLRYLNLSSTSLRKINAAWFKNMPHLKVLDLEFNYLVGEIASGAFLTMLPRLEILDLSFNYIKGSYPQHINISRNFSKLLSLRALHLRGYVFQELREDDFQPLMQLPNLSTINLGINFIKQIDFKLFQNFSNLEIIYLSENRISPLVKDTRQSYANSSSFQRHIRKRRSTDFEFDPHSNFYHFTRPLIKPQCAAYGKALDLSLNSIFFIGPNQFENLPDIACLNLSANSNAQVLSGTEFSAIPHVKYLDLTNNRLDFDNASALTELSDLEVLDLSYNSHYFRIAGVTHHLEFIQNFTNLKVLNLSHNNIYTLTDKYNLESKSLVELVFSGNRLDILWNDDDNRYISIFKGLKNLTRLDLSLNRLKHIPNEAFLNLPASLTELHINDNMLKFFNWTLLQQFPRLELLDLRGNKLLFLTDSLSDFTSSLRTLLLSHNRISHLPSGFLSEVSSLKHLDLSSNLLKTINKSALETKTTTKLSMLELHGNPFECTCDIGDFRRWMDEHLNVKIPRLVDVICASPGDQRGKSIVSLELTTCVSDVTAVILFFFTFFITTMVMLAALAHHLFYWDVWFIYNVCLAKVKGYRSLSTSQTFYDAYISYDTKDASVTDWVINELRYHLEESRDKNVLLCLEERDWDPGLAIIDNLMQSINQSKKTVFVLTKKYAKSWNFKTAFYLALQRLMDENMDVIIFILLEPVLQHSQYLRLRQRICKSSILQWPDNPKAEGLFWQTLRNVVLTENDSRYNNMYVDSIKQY
The experiment is described as follows: TLR8 inhibition reporter assay (HEK-Blue SEAP). The conditions noted are these: HEK-Blue cells overexpressing human TLR8, stimulated with R848 15.9 μM, 22 hour incubation. The protocol:
as §1, §2
On the technique in general: In a reporter assay the amount or activity of a reporter protein is the signal.

The next experiment deals with T3, human TLR9 (Homo sapiens, UniProt Q9NR96).
T3 construct: host or cells: HEK-Blue cells
T3 sequence (Q9NR96 26-1032): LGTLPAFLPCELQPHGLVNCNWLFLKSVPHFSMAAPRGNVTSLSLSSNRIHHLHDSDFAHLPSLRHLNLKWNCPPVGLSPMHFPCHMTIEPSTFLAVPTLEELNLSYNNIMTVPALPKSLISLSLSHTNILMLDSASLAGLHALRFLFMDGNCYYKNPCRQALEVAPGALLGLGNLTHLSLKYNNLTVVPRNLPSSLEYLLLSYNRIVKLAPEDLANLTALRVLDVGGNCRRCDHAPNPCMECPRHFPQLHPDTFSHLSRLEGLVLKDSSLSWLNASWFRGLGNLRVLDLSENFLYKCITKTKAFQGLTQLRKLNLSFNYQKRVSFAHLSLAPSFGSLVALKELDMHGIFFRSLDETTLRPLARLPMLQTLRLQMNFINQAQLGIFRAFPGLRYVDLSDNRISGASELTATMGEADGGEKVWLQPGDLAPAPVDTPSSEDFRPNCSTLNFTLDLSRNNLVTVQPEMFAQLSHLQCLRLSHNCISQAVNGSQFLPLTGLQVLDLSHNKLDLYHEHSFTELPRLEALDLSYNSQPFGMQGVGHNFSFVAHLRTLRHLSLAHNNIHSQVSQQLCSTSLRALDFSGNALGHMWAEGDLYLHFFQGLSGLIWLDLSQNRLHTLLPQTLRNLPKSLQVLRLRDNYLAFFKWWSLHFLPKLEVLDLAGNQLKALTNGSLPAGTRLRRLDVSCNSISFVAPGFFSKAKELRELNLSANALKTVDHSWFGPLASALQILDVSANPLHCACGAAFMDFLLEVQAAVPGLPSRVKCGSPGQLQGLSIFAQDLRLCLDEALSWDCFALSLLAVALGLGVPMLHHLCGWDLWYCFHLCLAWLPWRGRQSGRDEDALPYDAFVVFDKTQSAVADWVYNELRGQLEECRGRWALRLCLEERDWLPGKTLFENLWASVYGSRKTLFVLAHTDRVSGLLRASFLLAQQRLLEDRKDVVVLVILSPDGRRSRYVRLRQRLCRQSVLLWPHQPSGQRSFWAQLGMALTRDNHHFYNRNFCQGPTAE
The experiment can be described thus: TLR9 inhibition reporter assay (HEK-Blue SEAP). The conditions noted are these: HEK-Blue cells overexpressing human TLR9, stimulated with ODN2006 5 nM, 22 hour incubation. As to the method: as §1, §2

SMILES strings stand for the structures.

Regarding `Cc1cc2c(C3CCC(NC(C)C)CC3)n[nH]c2cc1-c1cc(C)c2ncnn2c1` (single isomer, unassigned) [Example 38, N-isopropyl-4-(5-methyl-6-(8-methyl-[1,2,4]triazolo[1,5-a]pyridin-6-yl)-1H-indazol-3-yl)cyclohexan-1-amine], the results for the IC50 against human TLR7, at human TLR8 and against human TLR9 were 6 nM, 0.1 nM and no less than 50000 nM, respectively.

As for `Cc1cc2c(C3CCC(NC(C)C)CC3)n[nH]c2cc1-c1cc(C)c2ncnn2c1` (single isomer, unassigned) [Example 39, N-isopropyl-4-(5-methyl-6-(8-methyl-[1,2,4]triazolo[1,5-a]pyridin-6-yl)-1H-indazol-3-yl) cyclohexan-1-amine], the IC50 against human TLR7 is 22.6 nM; against human TLR8 it was 0.9 nM; against human TLR9, 4120 nM.

For the compound `CCc1cc2c(C3CCC(N(C)C)CC3)n[nH]c2cc1-c1cc(C)c2ncnn2c1` (single isomer, unassigned) [Example 93, 4-(5-ethyl-6-(8-methyl-[1,2,4]triazolo[1,5-a]pyridin-6-yl)-1H-indazol-3-yl)-N,N-dimethylcyclohexan-1-amine], the IC50 against human TLR7 is 0.8 nM; at human TLR8 it was 0.1 nM; against human TLR9 it was 6120 nM.

For `CCc1cc2c(C3CCC(N(C)C)CC3)n[nH]c2cc1-c1cc(C)c2ncnn2c1` (single isomer, unassigned) [Example 94, 4-(5-ethyl-6-(8-methyl-[1,2,4]triazolo[1,5-a]pyridin-6-yl)-1H-indazol-3-yl)-N,N-dimethylcyclohexan-1-amine], the IC50 at human TLR7 came out at 3 nM; on human TLR8, 0.5 nM; at human TLR9, 10300 nM.

In the case of `CCc1cc2c(C3CCC(NC4CC4)CC3)n[nH]c2cc1-c1cc(C)c2ncnn2c1` (single isomer, unassigned) [Example 97, N-cyclopropyl-4-(5-ethyl-6-(8-methyl-[1,2,4]triazolo[1,5-a]pyridin-6-yl)-1H-indazol-3-yl)cyclohexan-1-amine], the IC50 was determined as 0.6 nM against human TLR7, 0.1 nM against human TLR8 and 5450 nM against human TLR9.

Turning to `CCc1cc2c(C3CCC(NC4CC4)CC3)n[nH]c2cc1-c1cc(C)c2ncnn2c1` (single isomer, unassigned) [Example 98, N-cyclopropyl-4-(5-ethyl-6-(8-methyl-[1,2,4]triazolo[1,5-a]pyridin-6-yl)-1H-indazol-3-yl)cyclohexan-1-amine], the figures for the IC50 at human TLR7, on human TLR8 and against human TLR9 were 2.5 nM, 0.2 nM and 6570 nM, respectively.

On to `CCc1cc2c(C3CCC(NCCS(C)(=O)=O)CC3)n[nH]c2cc1-c1cc(C)c2ncnn2c1` (single isomer, unassigned) [Example 99, 4-(5-ethyl-6-(8-methyl-[1,2,4]triazolo[1,5-a]pyridin-6-yl)-1H-indazol-3-yl)-N-(2-(methylsulfonyl)ethyl)cyclohexan-1-amine], for which the values for the IC50 at human TLR7, on human TLR8 and against human TLR9 were 0.9 nM, 0.1 nM and 14000 nM, respectively.

For `CCc1cc2c(C3CCC(NCCS(C)(=O)=O)CC3)n[nH]c2cc1-c1cc(C)c2ncnn2c1` (single isomer, unassigned) [Example 100, 4-(5-ethyl-6-(8-methyl-[1,2,4]triazolo[1,5-a]pyridin-6-yl)-1H-indazol-3-yl)-N-(2-(methylsulfonyl)ethyl)cyclohexan-1-amine], the values for the IC50 at human TLR7, at human TLR8 and on human TLR9 were 7.5 nM, 0.2 nM and 17500 nM, respectively.

For the compound `Cc1cc(-c2cc3[nH]nc(C4CCC(NC5CC5)CC4)c3cc2C(C)C)cn2ncnc12` (single isomer, unassigned) [Example 118, N-cyclopropyl-4-(5-isopropyl-6-(8-methyl-[1,2,4]triazolo[1,5-a]pyridin-6-yl)-1H-indazol-3-yl)cyclohexan-1-amine], the 50% inhibitory concentration (IC50) against human TLR7 turned out to be 0.3 nM; against human TLR8, 0.1 nM; against human TLR9, 4130 nM.

On to `Cc1cc(-c2cc3[nH]nc(C4CCC(NC5CC5)CC4)c3cc2C(C)C)cn2ncnc12` (single isomer, unassigned) [Example 119, N-cyclopropyl-4-(5-isopropyl-6-(8-methyl-[1,2,4]triazolo[1,5-a]pyridin-6-yl)-1H-indazol-3-yl)cyclohexan-1-amine], for which the IC50 at human TLR7 was determined as 1 nM; against human TLR8, 0.1 nM; against human TLR9 it was 4920 nM.

What is called IC50 is the concentration needed to halve the response being measured. A high value points to lower potency.

Values taken from patent US12172995B2, “Substituted indole and indazole compounds” (BRISTOL-MYERS SQUIBB COMPANY, priority 2018, dated 2024).
